Tests used:
[1] = test system: healthy volunteers (men and women); experiment: Local and general tolerability and safety of airborne nasal delivery; type: in vivo, human; conditions: 12 ng intranasal; for Adverse effects reported: during the intervention and 24 hours after
Method: The physiologic and psychological effects of pregna-5,20-dien-3β-ol were investigated in men and women. Additionally, the local and general tolerability and safety of pregna-5,20-dien-3β-ol delivered airborne to the nasal passages were also evaluated.
After completion of physiologic recordings and the modified DABS-70 (#3), all surface electrodes were removed and the subject went through an exit interview lasting 5 minutes. At this time the investigator recorded again the arterial blood pressure and also inquired the subject about his or her state of feelings, and also any possible adverse effect appearing during the study session.

[2] = test system: healthy volunteers (men and women); experiment: Behavioral effects by modified DABS-70 inventory after nasal exposure; type: in vivo, human; conditions: for Sensuality cluster mean: modified DABS-70, items scored 0-4
Method: We assessed the resulting physiological responses and behavioral changes induced by nasal exposure to 12 ng pregna-5,20-dien-3β-ol in 76 volunteers (38 women and 38 men), age 18 to 46 (Table 1) using a placebo-controlled, single blind and crossover study design. The items of the modified DABS-70 were rearranged during consecutive administrations, in order to minimize the effect of learning.
Forty of the items on the standard DABS-70 questionnaire are descriptions of “ways people feel”, and subjects indicate whether they had experienced each emotion “never”, “rarely”, “sometimes”, “frequently”, or “always” in the last two weeks. The remaining 30 items on the standard DABS-70 questionnaire are personality characteristics for which subjects describe themselves as “not at all,” “a little bit,” “moderately” “quite a bit” or “extremely,” depending on the degree to which they feel each trait is typical of them. In the modified DABS-70 questionnaire, sixty-seven items were selected and assessed and during the testing the questions were randomized to minimize or prevent “learning” the questionnaire by the volunteers. This psychometric instrument was chosen because several items were of a sexual connotation and could be used to quantify the effects of pregna-5,20-dien-3β-ol on sexuality.
Subjects who participated were asked, as a baseline, to fill out the modified DABS-70 as to their personality characteristics and feelings as they currently perceived them. Each item was quantified ranging from an individual's perception of “not at all” (0) to “extremely” (4). At the beginning of the questionnaire was a statement that they might feel differently after the blind and randomized exposure to the contents of a perfumery grade smelling strip positioned on the upper lip. The baseline electrophysiological measurements were performed after the questionnaire was completed, and again 5 minutes before the second randomized exposure (FIG. 3). Twenty minutes after the first randomized exposure to control or pregna-5,20-dien-3β-ol and again 20 minutes after the second randomized exposure to control or pregna-5,20-dien-3β-ol (in both instances, 5 minutes after the second and fourth set of electrophysiological measurements), the modified DABS-70 was administered again (FIG. 4). This task took approximately 10 minutes to complete, and the order of the questions of each consecutive modified DABS-70 administered was rearranged in order to minimize the effect of learning during prior administration of the test.
Active substance (pregna-5,20-dien-3β-ol) and control were freshly prepared on 0.7 cm×10 cm perfumery grade smelling strips 24 hours before the experiment. A perfumery grade smelling strip was positioned on the upper lip of the subject for delivery of control or active substance to the nasal passages for a period of 20 minutes. Each breath carried vapors of pregna-5,20-dien-3β-ol or control (air) from the paper strip to the nasal passages.
Perfumery grade smelling strips containing either pregna-5,20-dien-3β-ol or control were prepared as follows: 100 μl of stock solution containing 100 mg pregna-5,20-dien-3β-ol/10 mL ethanol (95%) was added to a clean paper strip. Ethanol was allowed to evaporate overnight in a clean fume hood, and 1 mg of dry crystals of pregna-5,20-dien-3β-ol remained embedded in the dried perfumery grade smelling strip. Control was a perfumery grade smelling strip prepared following the same procedure but the solution was devoid of active substance.
The following assumptions were used to calculate the quantity of pregna-5,20-dien-3β-ol delivered to the nasal passages during a study session: a) the quantity of pregna-5,20-dien-3β-ol arriving to the nasal passages with each breath is ≈40 pg (determined as described below); b) the average respiratory rate at rest in men and women is ≈15 breaths per minute; and c) the subject was exposed to pregna-5,20-dien-3β-ol for 20 min during the entire study session. […]

[3] = MALE, 12 ng nasal, modified DABS-70 item
[4] = men (N = 38), 12 ng nasal over 20 min, modified DABS-70
[5] = men and women, regardless of gender, 12 ng nasal, p<0.0001
[6] = women (N = 38), 12 ng nasal over 20 min, modified DABS-70

SMILES: C=C[C@H]1CC[C@H]2[C@@H]3CC=C4C[C@@H](O)CC[C@]4(C)[C@H]3CC[C@]12C [pregna-5,20-dien-3β-ol, Pregna-5,20-dien-3β-ol]
- Arterial blood pressure, beginning of session vs exit interview [1]: absence of significant arterial blood pressure difference
- Tolerability ([1]; airborne, all volunteers of both gender groups): well tolerated
- Adverse effects reported [1]: no adverse effects reported
- Adverse effects reported ([1]; listed as Pregna-5,20-dien-3β-ol): no reports of local or general adverse side effects
- Local nasal discomfort / clinical examination of the nasal passages ([1]; end of the recording session): did not reveal local lesions and/or inflammation
- ENERGETIC item, ACTIVE MEAN ([2]; FEMALE, 12 ng nasal, modified DABS-70 item): 2.07
- LOVING item, ACTIVE MEAN [2, 3]: 2.42
- WARM item, ACTIVE MEAN [2, 3]: 2.25
- Arousal/Excitement cluster mean [2, 4]: 2.006
- Negativity cluster mean [2, 4]: 0.246
- Personal Well-Being cluster mean [2, 4]: 2.607
- Social Warmth/Friendliness cluster mean [2, 4]: 2.147
- Sensuality cluster mean ([2]; men (N = 38), 12 ng nasal over 20 min): 1.286
- Social Warmth and Friendliness cluster, overall response versus control ([2]; men and women, regardless of gender, 12 ng nasal, p<0.00001): active>control
- Arousal and Excitement cluster, overall response versus control [2, 5]: active>control
- Sensuality cluster, overall response versus control [2, 5]: active>control
- Negativity cluster, response versus control ([2]; men and women, 12 ng nasal): not associated with being exposed to active versus control treatment
- Arousal/Excitement cluster mean [2, 6]: 1.857
- Negativity cluster mean [2, 6]: 0.238
- Social Warmth/Friendliness cluster mean [2, 6]: 1.92
- Sensuality cluster mean ([2]; women (N = 38), 12 ng nasal over 20 min): 1.446
